According to DBAASP:
≈ marks a conversion by molar mass, not a printed value.

Columns and labels:
Test in all cases: ≥ marks a high value that may be exact or a test limit, other limits are often not marked, values filed in µg/mL are converted to µM
[1] = system: Staphylococcus aureus ATCC 25923
[2] = system: Salmonella enterica serovar Typhimurium
[3] = system: Pseudomonas aeruginosa H103
[4] = system: Enterococcus faecalis ATCC 29212
Candida albicans = system: Candida albicans
[5] = system: Staphylococcus epidermidis
Escherichia coli UB1005 = system: Escherichia coli UB1005
[6] = system: Escherichia coli ATCC 25726
[7] = system: Bacillus subtilis ATCC 23857
[8] = system: Staphylococcus aureus ATCC 29213
[9] = system: Escherichia coli ATCC 25922
[10] = system: Staphylococcus epidermidis ATCC 12228
Klebsiella pneumoniae = system: Klebsiella pneumoniae
Pseudomonas aeruginosa = system: Pseudomonas aeruginosa
Escherichia coli = system: Escherichia coli
Acinetobacter baumannii = system: Acinetobacter baumannii
Staphylococcus aureus = system: Staphylococcus aureus
Enterococcus faecalis = system: Enterococcus faecalis
[11] = system: Pseudomonas aeruginosa ATCC 27853
[12] = system: Pseudomonas aeruginosa PAO1

Compound | MIC [1] [µM] | MIC [2] [µM] | MIC [3] [µM] | MIC (Candida albicans) [µM] | MIC [5] [µM] | MIC (Escherichia coli UB1005) [µM] | also measured
CC[C@H](C)[C@H](NC(=O)CNC(=O)[C@H](Cc1ccccc1)NC(=O)[C@H](CCSC)NC(=O)[C@@H](NC(=O)[C@H](CC(N)=O)NC(=O)[C@H](CCCCN)NC(=O)[C@H](Cc1ccccc1)NC(=O)[C@H](C)NC(=O)CNC(=O)[C@H](CCCCN)NC(=O)[C@H](Cc1ccccc1)NC(=O)CN)C(C)C)C(=O)N[C@@H](C)C(=O)N[C@@H](CCCCN)C(=O)N[C@@H](CO)C(=O)N[C@@H](C)C(=O)NCC(=O)N[C@@H](CCCCN)C(=O)N[C@@H](CO)C(=O)N[C@@H](C)C(=O)N[C@@H](CC(C)C)C(=O)N[C@@H](CC(N)=O)C(=O)N[C@@H](C)C(=O)N[C@@H](CC(C)C)C(=O)N[C@@H](C)C(=O)N[C@H]1CSSC[C@@H](C(=O)O)NC(=O)[C@H](CO)NC(=O)[C@H](CCCCN)NC(=O)[C@H](CC(=O)O)NC(=O)[C@H]([C@@H](C)CC)NC(=O)[C@H](CCCCN)NC1=O [GFKGAFKNVMFGIAKSAGKSALNALACKIDKSC] | 9.18 (≈ 31 µg/mL) |  |  |  |  |  | MIC [6]: 9.18 µM (≈ 31 µg/mL)
CC[C@H](C)[C@H](N)C(=O)N[C@@H](CC(=O)O)C(=O)N[C@@H](Cc1c[nH]c2ccccc12)C(=O)N[C@@H](CCCCN)C(=O)N[C@@H](CCCCN)C(=O)N[C@@H](CC(C)C)C(=O)N[C@@H](CC(C)C)C(=O)N[C@@H](CC(=O)O)C(=O)N1CCC[C@H]1C(=O)N[C@@H](C)C(=O)N[C@@H](CCCCN)C(=O)N[C@@H](CCC(N)=O)C(=O)N[C@H](C(=O)N[C@@H](CC(C)C)C(N)=O)[C@@H](C)CC [IDWKKLLDPAKQIL] |  |  |  |  |  |  | MIC [7]: ≥ 128 µM; MIC [8]: 1020 µM (≈ 1720 µg/mL); MIC [9]: 256 µM (≈ 430 µg/mL); MIC [10]: 512 µM (≈ 860 µg/mL)
CC[C@H](C)[C@H](NC(=O)CNC(=O)[C@H](CCCN=C(N)N)NC(=O)[C@H](Cc1ccc(O)cc1)NC(=O)[C@H](CC(C)C)NC(=O)[C@H](Cc1cnc[nH]1)NC(=O)CNC(=O)[C@H](Cc1ccccc1)NC(=O)[C@@H](N)Cc1c[nH]c2ccccc12)C(=O)N[C@H](C(=O)N[C@@H](CCCCN)C(=O)N[C@H](C(=O)N[C@H](C(=O)N[C@@H](CCCCN)C(=O)N[C@@H](Cc1cnc[nH]1)C(=O)N[C@H](C(=O)N[C@@H](Cc1cnc[nH]1)C(=O)NCC(=O)N[C@@H](CC(C)C)C(=O)N[C@@H](CC(C)C)C(=O)N[C@@H](CCCCN)C(=O)NCC(=O)O)C(C)C)C(C)C)C(C)C)[C@@H](C)O [WFGHLYRGITKVVKHVHGLLKG] |  |  |  |  | 2.5 (≈ 6.37 µg/mL) |  | MIC (Klebsiella pneumoniae): 1.2 µM (≈ 3.06 µg/mL); MIC (Pseudomonas aeruginosa): 4.9 µM (≈ 12.5 µg/mL); MIC (Escherichia coli): 2.5 µM (≈ 6.37 µg/mL); MIC (Acinetobacter baumannii): 1.2 µM (≈ 3.06 µg/mL); MIC (Staphylococcus aureus): 19.6 µM (≈ 49.9 µg/mL); MIC (Enterococcus faecalis): 1.2 µM (≈ 3.06 µg/mL)
CC[C@H](C)[C@H](NC(=O)CN)C(=O)N[C@H](C(=O)N[C@@H](C)C(=O)NCC(=O)N[C@@H](C)C(=O)N[C@H](C(=O)N[C@H](C(=O)N[C@@H](CCCCN)C(=O)N[C@H](C(=O)N[C@@H](CCCCN)C(=O)N[C@@H](CCCCN)C(N)=O)[C@@H](C)CC)[C@@H](C)CC)[C@@H](C)CC)[C@@H](C)CC [GIIAGAIIKIKK] |  |  |  |  |  |  | MIC [7]: ≥ 32 µM; MIC [9]: 64 µM (≈ 78.3 µg/mL)
CC(C)C[C@H](NC(=O)[C@H](CC(C)C)NC(=O)[C@H](CCCCN)NC(=O)[C@H](CCCCN)NC(=O)[C@H](Cc1c[nH]c2ccccc12)NC(=O)[C@H](CCCN=C(N)N)NC(=O)[C@H](CCCCN)NC(=O)[C@H](CC(C)C)NC(=O)[C@H](CC(C)C)NC(=O)[C@@H](N)Cc1c[nH]c2ccccc12)C(N)=O [WLLKRWKKLL] | 32 (≈ 44.3 µg/mL) |  |  |  |  |  | MIC [7]: 16 µM (≈ 22.1 µg/mL); MIC [9]: 64 µM (≈ 88.5 µg/mL); MIC [11]: 8 µM (≈ 11.1 µg/mL)
CC[C@H](C)[C@H](NC(=O)[C@H](CCCN=C(N)N)NC(=O)[C@H](Cc1ccccc1)NC(=O)[C@H](CCCN=C(N)N)NC(=O)[C@@H](N)CCCCN)C(=O)N[C@@H](CCCN=C(N)N)C(=O)N[C@H](C(=O)N[C@@H](CCCN=C(N)N)C(=O)N[C@H](C(=O)N[C@H](C(=O)N[C@@H](CCCN=C(N)N)C(=O)N[C@@H](CCCCN)C(N)=O)[C@@H](C)CC)C(C)C)C(C)C [KRFRIRVRVIRK] | 3.69 (≈ 6 µg/mL) | 1.84 (≈ 3 µg/mL) | 3.69 (≈ 6 µg/mL) | 7.38 (≈ 12 µg/mL) | 0.492 (≈ 0.8 µg/mL) | 0.983 (≈ 1.6 µg/mL) | MIC [12]: 7.38 µM (≈ 12 µg/mL)
CC[C@H](C)[C@H](NC(=O)CNC(=O)CNC(=O)[C@H](CCCCN)NC(=O)[C@H](Cc1ccccc1)NC(=O)[C@H](Cc1ccccc1)NC(=O)[C@H](CCCCN)NC(=O)[C@H](CCCCN)NC(=O)[C@H](CC(C)C)NC(=O)[C@@H](NC(=O)[C@H](CC(=O)O)NC(=O)[C@H](CCCCN)NC(=O)[C@@H](NC(=O)[C@@H](NC(=O)[C@@H]1CCCN1C(=O)[C@@H]1CCCN1C(=O)[C@@H](NC(=O)[C@H](CCCCN)NC(=O)[C@@H](N)Cc1ccccc1)[C@@H](C)CC)[C@@H](C)CC)C(C)C)[C@@H](C)O)C(=O)N[C@@H](C)C(=O)NCC(=O)N[C@H](C(=O)N[C@@H](CCSC)C(=O)NCC(=O)N[C@@H](CCC(N)=O)C(=O)O)C(C)C [FKIPPIVKDTLKKFFKGGIAGVMGQ] | 5 (≈ 13.6 µg/mL) |  |  |  |  |  | MIC [6]: 20 µM (≈ 54.4 µg/mL)

The next lines start with results.

MIC [1] [µM] | MIC [2] [µM] | MIC [3] [µM] | MIC (Candida albicans) [µM] | MIC [5] [µM] | MIC (Escherichia coli UB1005) [µM] | Compound | also measured
2.9 (≈ 3.9 µg/mL) | ≥ 92.8 | ≥ 92.8 | > 92.8 | 1.4 (≈ 1.88 µg/mL) | 2.9 (≈ 3.9 µg/mL) | CC[C@H](C)[C@H](NC(=O)[C@H](Cc1ccc(O)cc1)NC(=O)[C@@H](NC(=O)[C@H](CCCN=C(N)N)NC(=O)[C@H](Cc1c[nH]c2ccccc12)NC(=O)[C@H](CCCN=C(N)N)NC(=O)[C@H](Cc1ccccc1)NC(=O)[C@H](CCCCN)NC(=O)[C@@H](N)Cc1ccc(O)cc1)[C@@H](C)CC)C(=O)O [YKFRWRIYI] | MIC [4]: 2.9 µM (≈ 3.9 µg/mL)
1.3 (≈ 1.91 µg/mL) | 2.7 (≈ 3.98 µg/mL) | ≥ 86.3 | 5.4 (≈ 7.95 µg/mL) | 1.3 (≈ 1.91 µg/mL) | 2.7 (≈ 3.98 µg/mL) | CC[C@H](C)[C@H](NC(=O)[C@@H](N)CCCN=C(N)N)C(=O)N[C@@H](CCCCN)C(=O)N[C@@H](CCCN=C(N)N)C(=O)N[C@@H](Cc1c[nH]c2ccccc12)C(=O)N[C@@H](Cc1c[nH]c2ccccc12)C(=O)N[C@@H](Cc1c[nH]c2ccccc12)C(=O)N[C@@H](Cc1c[nH]c2ccccc12)C(=O)N[C@@H](CCCN=C(N)N)C(=O)O [RIKRWWWWR] | MIC [4]: 10.8 µM (≈ 15.9 µg/mL)
0.7 (≈ 1.4 µg/mL) | 1.5 (≈ 2.99 µg/mL) | 6 (≈ 12 µg/mL) | 3 (≈ 5.99 µg/mL) | 0.7 (≈ 1.4 µg/mL) | 1.5 (≈ 2.99 µg/mL) | CC[C@H](C)[C@H](NC(=O)[C@@H](N)Cc1ccccc1)C(=O)N[C@@H](CCCCN)C(=O)N[C@@H](Cc1c[nH]c2ccccc12)C(=O)N[C@@H](CCCCN)C(=O)N[C@@H](Cc1ccccc1)C(=O)N[C@@H](CCCN=C(N)N)C(=O)N[C@@H](Cc1c[nH]c2ccccc12)C(=O)N[C@@H](Cc1c[nH]c2ccccc12)C(=O)N[C@@H](CCCCN)C(=O)N[C@@H](Cc1c[nH]c2ccccc12)C(=O)N[C@@H](CCCN=C(N)N)C(=O)N[C@@H](CCCCN)C(=O)O [FIKWKFRWWKWRK] | MIC [4]: 1.5 µM (≈ 2.99 µg/mL)
3.11 (≈ 7.99 µg/mL) |  |  |  |  |  | CC[C@H](C)[C@@H]1NC(=O)[C@H](C)NC(=O)[C@@H](NC(=O)[C@H](Cc2ccccc2)NC(=O)[C@@H](NC(=O)[C@@H](NC(=O)[C@@H]2CCCN2C(=O)[C@@H](NC(=O)[C@@H](NC(=O)[C@H](CCCCN)NC(=O)[C@H](C)NC(=O)[C@H](C)NC(=O)[C@@H](NC(=O)[C@H](CCCN=C(N)N)NC(=O)[C@H](CC(C)C)NC(=O)[C@@H](NC(=O)[C@H](C)NC(=O)[C@@H]2CCCN2C(=O)[C@H](CC(C)C)NC(=O)[C@@H](N)Cc2ccccc2)C(C)C)C(C)C)[C@@H](C)CC)C(C)C)[C@@H](C)O)C(C)C)CSSC[C@@H](C(=O)O)NC(=O)[C@H](CCCCN)NC(=O)[C@H](CCCCN)NC(=O)[C@H](CO)NC1=O [FLPAVLRVAAKIVPTVFCAISKKC] | MIC [6]: 24.3 µM (≈ 62.5 µg/mL)
